Experimental data from patent US20240092835A1, “NOVEL PEPTIDES CAPABLE OF ALTERING NK CELL ACTIVITY” (Massachusetts Institute of Technology, priority 2022, published 2024).
Where no end group is shown, it is not given here.

Key:
[1] = target: CD94/NKG2A (Homo sapiens, UniProt P26715+Q13241); assay: Steady-state surface plasmon resonance of peptide-HLA-E complex with CD94/NKG2A; type: binding; conditions: for Binding of peptide-HLA-E complexes to CD94/NKG2A normalized to a theoretical Rmax: steady-state SPR
Chain of CD94/NKG2A (P26715 94-233 limits assumed): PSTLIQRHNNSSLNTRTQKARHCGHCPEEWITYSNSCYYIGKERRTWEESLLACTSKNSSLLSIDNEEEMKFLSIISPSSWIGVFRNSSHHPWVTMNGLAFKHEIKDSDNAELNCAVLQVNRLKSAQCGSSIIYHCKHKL
Chain of CD94/NKG2A (Q13241 32-179 limits assumed): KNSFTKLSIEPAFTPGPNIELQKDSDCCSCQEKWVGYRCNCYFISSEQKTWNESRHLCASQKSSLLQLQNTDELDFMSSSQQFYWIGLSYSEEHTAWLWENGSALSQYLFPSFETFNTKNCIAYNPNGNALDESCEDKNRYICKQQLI
Experimental: Binding affinity of novel peptides linked to HLA-E was determined using surface plasmon resonance (SPR), a methodology used to study protein-protein interactions (Tables 15-19). The peptide-HLA-E complex (generated as a single chain trimer) was immobilized on the sensor chip surface and CD94/NKG2A or CD94/NKG2C were flowed over. Steady-state surface plasmon resonance experiments were performed with a Biacore T200 instrument. CD94/NKG2x in HBS-EP+ buffer was injected as analyte in a concentration range of 0.1 μM to 102.4 μM and flow rate of 10 μL/min at 25° C. Data was fit with Prism 9.4 (GraphPad Software Inc; San Diego CA) to a “one site, specific binding” model. Series S CM5 chips were coupled to neutravidin and utilized. Biotinylated pMHC was immobilized at approximately 400 RU. KD values calculated by Biacore software are reported. Rmax, fit values were calculated by Biacore software. Rmax, theoretical values were calculated using the analyte/ligand mass ratio (0.66) multiplied by the amount of ligand coupled to the chip.

[2] = tested on: NKG2A−/NKG2C− NK cells; assay: NK cell activation markers in control NKG2A-/NKG2C- NK cells incubated with peptide and K562 expressing HLA-E; type: cell-based, human
Method in brief: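 K562 + HLA-E, pulsed with human/CMV proteome peptides → incubated with sorted NK subsets → surface marker staining, % positive cells. Increase = activation; decrease = inhibition.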

[3] = CD94/NKG2A concentration 0.1 μM
[4] = CD94/NKG2A concentration 0.2 μM
[5] = CD94/NKG2A concentration 0.4 μM
[6] = CD94/NKG2A concentration 0.8 μM
[7] = CD94/NKG2A concentration 1.6 μM
[8] = CD94/NKG2A concentration 3.2 μM
[9] = CD94/NKG2A concentration 6.4 μM
[10] = CD94/NKG2A concentration 12.8 μM
[11] = CD94/NKG2A concentration 25.6 μM
[12] = CD94/NKG2A concentration 51.2 μM
[13] = CD94/NKG2A concentration 102.4 μM
[14] = CD94/NKG2A analyte concentration 0.000 μM
[15] = CD94/NKG2A analyte concentration 0.100 μM
[16] = CD94/NKG2A analyte concentration 0.200 μM
[17] = CD94/NKG2A analyte concentration 0.400 μM
[18] = CD94/NKG2A analyte concentration 0.800 μM
[19] = CD94/NKG2A analyte concentration 1.600 μM
[20] = CD94/NKG2A analyte concentration 3.200 μM
[21] = CD94/NKG2A analyte concentration 6.400 μM
[22] = CD94/NKG2A analyte concentration 12.800 μM
[23] = CD94/NKG2A analyte concentration 25.600 μM
[24] = CD94/NKG2A analyte concentration 51.200 μM
[25] = CD94/NKG2A analyte concentration 102.400 μM

Sequence: QMPSRSLLF [human1, QMPSRSLLF]
- binding of peptide-HLA-E complex to CD94/NKG2A normalized to a fitted Rmax ([1]; CD94/NKG2A concentration 0 μM): −0.006
- binding of peptide-HLA-E complex to CD94/NKG2A normalized to a fitted Rmax [1, 3]: 0.035
- binding of peptide-HLA-E complex to CD94/NKG2A normalized to a fitted Rmax [1, 4]: 0.068
- binding of peptide-HLA-E complex to CD94/NKG2A normalized to a fitted Rmax [1, 5]: 0.128
- binding of peptide-HLA-E complex to CD94/NKG2A normalized to a fitted Rmax [1, 6]: 0.221
- binding of peptide-HLA-E complex to CD94/NKG2A normalized to a fitted Rmax [1, 7]: 0.349
- binding of peptide-HLA-E complex to CD94/NKG2A normalized to a fitted Rmax [1, 8]: 0.506
- binding of peptide-HLA-E complex to CD94/NKG2A normalized to a fitted Rmax [1, 9]: 0.664
- binding of peptide-HLA-E complex to CD94/NKG2A normalized to a fitted Rmax [1, 10]: 0.798
- binding of peptide-HLA-E complex to CD94/NKG2A normalized to a fitted Rmax [1, 11]: 0.896
- binding of peptide-HLA-E complex to CD94/NKG2A normalized to a fitted Rmax [1, 12]: 0.950
- binding of peptide-HLA-E complex to CD94/NKG2A normalized to a fitted Rmax [1, 13]: 0.996
- Binding of peptide-HLA-E complexes to CD94/NKG2A normalized to a theoretical Rmax [1, 14]: −0.005
- Binding of peptide-HLA-E complexes to CD94/NKG2A normalized to a theoretical Rmax [1, 15]: 0.025
- Binding of peptide-HLA-E complexes to CD94/NKG2A normalized to a theoretical Rmax [1, 16]: 0.049
- Binding of peptide-HLA-E complexes to CD94/NKG2A normalized to a theoretical Rmax [1, 17]: 0.093
- Binding of peptide-HLA-E complexes to CD94/NKG2A normalized to a theoretical Rmax [1, 18]: 0.160
- Binding of peptide-HLA-E complexes to CD94/NKG2A normalized to a theoretical Rmax [1, 19]: 0.252
- Binding of peptide-HLA-E complexes to CD94/NKG2A normalized to a theoretical Rmax [1, 20]: 0.365
- Binding of peptide-HLA-E complexes to CD94/NKG2A normalized to a theoretical Rmax [1, 21]: 0.479
- Binding of peptide-HLA-E complexes to CD94/NKG2A normalized to a theoretical Rmax [1, 22]: 0.577
- Binding of peptide-HLA-E complexes to CD94/NKG2A normalized to a theoretical Rmax [1, 23]: 0.647
- Binding of peptide-HLA-E complexes to CD94/NKG2A normalized to a theoretical Rmax [1, 24]: 0.686
- Binding of peptide-HLA-E complexes to CD94/NKG2A normalized to a theoretical Rmax [1, 25]: 0.719
- percentage CCL3+ NK cells ([2]; Trial 1): 37%
- percentage CD107+ NK cells ([2]; Trial 1): 25.1%
- percentage TNF+ NK cells ([2]; Trial 1): 4.84%
- percentage of IFNG+ NK cells ([2]; Trial 1): 16.2%
- percentage CCL3+ NK cells ([2]; Trial 2): 59.6%
- percentage CD107+ NK cells ([2]; Trial 2): 37.6%
- percentage TNF+ NK cells ([2]; Trial 2): 11.3%
- percentage of IFNG+ NK cells ([2]; Trial 2): 29.3%
- percentage CCL3+ NK cells ([2]; Trial 3): 51.3%
- percentage CD107+ NK cells ([2]; Trial 3): 47.2%
- percentage TNF+ NK cells ([2]; Trial 3): 19%
- percentage of IFNG+ NK cells ([2]; Trial 3): 38.5%
- percentage CCL3+ NK cells ([2]; Trial 4): 33.1%
- percentage CD107+ NK cells ([2]; Trial 4): 29.5%
- percentage TNF+ NK cells ([2]; Trial 4): 9.26%
- percentage of IFNG+ NK cells ([2]; Trial 4): 18.6%
- percentage CCL3+ NK cells ([2]; Trial 5): 26%
- percentage CD107+ NK cells ([2]; Trial 5): 19.8%
- percentage TNF+ NK cells ([2]; Trial 5): 6.91%
- percentage of IFNG+ NK cells ([2]; Trial 5): 15.9%
- percentage CCL3+ NK cells ([2]; Trial 6): 24.1%
- percentage CD107+ NK cells ([2]; Trial 6): 18.8%
- percentage TNF+ NK cells ([2]; Trial 6): 3.78%
- percentage of IFNG+ NK cells ([2]; Trial 6): 7.82%

Sequence: TAPARTMFL [human13, TAPARTMFL]
- binding of peptide-HLA-E complex to CD94/NKG2A normalized to a fitted Rmax ([1]; CD94/NKG2A concentration 0 μM): 0.010
- binding of peptide-HLA-E complex to CD94/NKG2A normalized to a fitted Rmax [1, 3]: 0.024
- binding of peptide-HLA-E complex to CD94/NKG2A normalized to a fitted Rmax [1, 4]: 0.037
- binding of peptide-HLA-E complex to CD94/NKG2A normalized to a fitted Rmax [1, 5]: 0.066
- binding of peptide-HLA-E complex to CD94/NKG2A normalized to a fitted Rmax [1, 6]: 0.115
- binding of peptide-HLA-E complex to CD94/NKG2A normalized to a fitted Rmax [1, 7]: 0.191
- binding of peptide-HLA-E complex to CD94/NKG2A normalized to a fitted Rmax [1, 8]: 0.302
- binding of peptide-HLA-E complex to CD94/NKG2A normalized to a fitted Rmax [1, 9]: 0.432
- binding of peptide-HLA-E complex to CD94/NKG2A normalized to a fitted Rmax [1, 10]: 0.558
- binding of peptide-HLA-E complex to CD94/NKG2A normalized to a fitted Rmax [1, 11]: 0.685
- binding of peptide-HLA-E complex to CD94/NKG2A normalized to a fitted Rmax [1, 12]: 0.819
- binding of peptide-HLA-E complex to CD94/NKG2A normalized to a fitted Rmax [1, 13]: 0.961
- Binding of peptide-HLA-E complexes to CD94/NKG2A normalized to a theoretical Rmax [1, 14]: 0.006
- Binding of peptide-HLA-E complexes to CD94/NKG2A normalized to a theoretical Rmax [1, 15]: 0.015
- Binding of peptide-HLA-E complexes to CD94/NKG2A normalized to a theoretical Rmax [1, 16]: 0.023
- Binding of peptide-HLA-E complexes to CD94/NKG2A normalized to a theoretical Rmax [1, 17]: 0.042
- Binding of peptide-HLA-E complexes to CD94/NKG2A normalized to a theoretical Rmax [1, 18]: 0.074
- Binding of peptide-HLA-E complexes to CD94/NKG2A normalized to a theoretical Rmax [1, 19]: 0.122
- Binding of peptide-HLA-E complexes to CD94/NKG2A normalized to a theoretical Rmax [1, 20]: 0.193
- Binding of peptide-HLA-E complexes to CD94/NKG2A normalized to a theoretical Rmax [1, 21]: 0.277
- Binding of peptide-HLA-E complexes to CD94/NKG2A normalized to a theoretical Rmax [1, 22]: 0.357
- Binding of peptide-HLA-E complexes to CD94/NKG2A normalized to a theoretical Rmax [1, 23]: 0.439
- Binding of peptide-HLA-E complexes to CD94/NKG2A normalized to a theoretical Rmax [1, 24]: 0.524
- Binding of peptide-HLA-E complexes to CD94/NKG2A normalized to a theoretical Rmax [1, 25]: 0.615
- percentage CCL3+ NK cells ([2]; Trial 1): 37.2%
- percentage CD107+ NK cells ([2]; Trial 1): 26.3%
- percentage TNF+ NK cells ([2]; Trial 1): 3.65%
- percentage of IFNG+ NK cells ([2]; Trial 1): 16.6%
- percentage CCL3+ NK cells ([2]; Trial 2): 65.4%
- percentage CD107+ NK cells ([2]; Trial 2): 43%
- percentage TNF+ NK cells ([2]; Trial 2): 11.9%
- percentage of IFNG+ NK cells ([2]; Trial 2): 32.5%
- percentage CCL3+ NK cells ([2]; Trial 3): 56.2%
- percentage CD107+ NK cells ([2]; Trial 3): 56.4%
- percentage TNF+ NK cells ([2]; Trial 3): 23.2%
- percentage of IFNG+ NK cells ([2]; Trial 3): 49.4%
- percentage CCL3+ NK cells ([2]; Trial 4): 37.7%
- percentage CD107+ NK cells ([2]; Trial 4): 31.8%
- percentage TNF+ NK cells ([2]; Trial 4): 12.1%
- percentage of IFNG+ NK cells ([2]; Trial 4): 22.2%
- percentage CCL3+ NK cells ([2]; Trial 5): 30.1%
- percentage CD107+ NK cells ([2]; Trial 5): 22.7%
- percentage TNF+ NK cells ([2]; Trial 5): 8.01%
- percentage of IFNG+ NK cells ([2]; Trial 5): 18.9%
- percentage CCL3+ NK cells ([2]; Trial 6): 27.4%
- percentage CD107+ NK cells ([2]; Trial 6): 21.1%
- percentage TNF+ NK cells ([2]; Trial 6): 3.64%
- percentage of IFNG+ NK cells ([2]; Trial 6): 8.06%
